Results from patent publication US20220363710A1, “SMALL-MOLECULE COMPOUND HAVING A2A ADENOSINE RECEPTOR ANTAGONISM” (ACADEMY OF MILITARY MEDICAL SCIENCES, priority 2019, published 2022).
Read-outs that look alike come from different tables or passages of the source.

What was measured:
[1] = target: human adenosine receptor A2A (Homo sapiens, UniProt P29274); assay: A2A adenosine receptor cAMP test (LANCE Ultra cAMP, hADORA2A-HEK293 cells); assay type: cell-based
Text: A2A Adenosine Receptor cAMP Test
Experimental reagents and consumables: DMEM/F12, G418, Penicillin-Streptomycin, Versene Solution, HEPES, Hank's Buffered Saline Solution, PBS (pH 7.4, 1×, sterile), FBS, BSA Stabilizer 7.5%, Rolipram, NECA were separately purchased from Gibico, Hyclone and Sigma. LANCE® Ultra cAMP kit (Eu-cAMP tracer, Ulight-anti-cAMP reagent, cAMP detection buffer) and hADORA2A-HEK293 cells were purchased from PerkinElmer Research Products (Boston, Mass.). All other reagents were of analytical grade and obtained from commercial sources. 384-well polypropylene microplate and 384-well solid white plate were purchased from Labcyte and Corning, respectively.
Experimental instruments: TECAN automated liquid handling workstation, Echo Acoustic Liquid Handler and EnVison multimode plate reader were purchased from TECAN, Labcyte and […], respectively.
The cells stably expressing human adenosine receptor A2A (hADORA2A-HEK293 cells) were cultured in DMEM/F12 medium containing 10% FBS, 1× Penicillin-Streptomycin and 400 μg/ml G418 in a 37° C. and 5% CO2 environment. Before the experiment, the cells were digested with Versene solution, and the cells were collected by centrifugation at 200 g and room temperature for 5 minutes, and finally resuspended with assay buffer (Hank's buffered saline solution, containing 5 mM HEPES, 0.1% BSA stabilizer and 10 μM Rolipram, pH 7.4). The TECAN automated liquid handling workstation was used to dilute the compound in a 384-well polypropylene microplate with DMSO to 11 concentration points in a 3-fold gradient to prepare the compound source plate, in which the 11 concentration points of the compound were 10 mM, 3.33 mM, 1.11 mM., 0.37 mM, 0.12 mM, 0.041 mM, 0.013 mM, 4.57×10^−3 mM, 1.52×10^−3 mM, 5×10−4 mM and 1.7×10^−4 mM. The Echo Acoustic Liquid Handler (Labcyte) was used to transfer the test compound from the compound source plate to an assay plate, in which the transfer volume of the compound was 10 nl/well. The hADORA2A-HEK293 cell suspension was diluted with assay buffer to 30,000 cells/ml, and the cell suspension was transferred to the assay plate at a volume of 10 μl/well (300 cells/well). The assay plate was centrifuged at 150 g for 1 minute and pre-incubated at room temperature for 30 minutes. The Eu-cAMP tracer working solution (Eu-cAMP tracer 40 μl, cAMP detection buffer 1.96 ml) (5 μl/well) was added to the assay plate, and then the Ulight-anti-cAMP working solution (13 μl of Ulight-anti-cAMP reagent and 1.95 ml of cAMP detection buffer) (5 μl/well) was added to the assay plate. The assay plate was rotated at 150 g for 30 seconds and incubated at room temperature for 30 minutes. The EnVison multimode plate reader (PerkinElmer) was used determine the level of cyclic adenosine monophosphate in the final solution (λex=320 nm, λem=665 nm & 615 nm). The EC50 (nM) value of the compound interacting with the A2A adenosine receptor to stimulate the production of cyclic adenosine monophosphate was calculated and the titer of the compound function was expressed as the EC50 (nM) value.
When the test compounds interacted with A2AAR, the EC50 (nM) values for stimulating the production of cyclic AMP were shown in Table 2.

[2] = target: T1, (human) A2A adenosine receptor (Homo sapiens, UniProt P29274); assay: Radioligand binding test ([3H]CGS21680 displacement, hA2A HEK-293 cell membranes); conditions: for IC50: [3H]-CGS 21680 25 nM, hA2A HEK-293 cell membrane, 25° C., 90 minutes, read-out: IC50 (nM), compounds binding to A2A adenosine receptor; for Ki: read-out: Ki (nM), inhibition constant for binding to A2A adenosine receptor
T1 construct: purchased PerkinElmer Research Products (Boston, Mass.); host or cells: HEK-293 cells, stably transfected; membrane preparation
Description: Cell membranes stably transfected with (human) A2A adenosine receptor were prepared in HEK-293 cells. The cell membranes were obtained from PerkinElmer Research Products (Boston, Mass.).
CGS 21680 (2-[p-(2-carboxyethyl)phenylethylamino]-5′-ethylcarboxamidoadenosine) was purchased from Selleck (Shanghai, CN).
The A2A adenosine receptors used were all expressed in the cell membranes. The compound was diluted 3 times serially with DMSO (Solarbio, D8371-250 ml) to generate compound source plates with 10 different concentrations (10 μM, 3.3 μM, 1.1 μM, 0.37 μM, 0.12 μM, 0.0412 μM, 0.0137 μM, 0.0046 μM, 0.0015 μM, 0.0005 μM), 250 nL of compound was added to 384-well Opti-plate, sealed with parafilm. […] (final 25 nM) was added to the diluted cell membrane and mixed well. 50 μL of the prepared dilution solution of cell membrane was transferred to the 384-well Opti-plate containing compound and incubated at 25° C. for 90 minutes. 100 μL of 0.5% Polyethyleneimine solution (PEI) was added to […]-96 GF/B filter plate, and soaked for 90 minutes at 4° C., then 500 μL of washing buffer/well (50 mM Tris-HCl, pH 7.4, 154 mM NaCl) was transferred with Cell Harvester to wash the […]-96 GF/B filter plate twice. The mixed system in the Opti-plate was transferred to the washed […]-96 GF/B filter plate, 500 μL of washing buffer/well (50 mM Tris-HCl, pH 7.4, 154 mM NaCl) was used to wash the […]-96 GF/B filter plate 9 times. Incubation was performed at 37° C. for 3 minutes. 40 μL of ULTIMA GOLD scintillation solution (Perkin Elmer, Cat #77-16061) was added to each well, CPM (count per minute) value was read by a MicroBeta liquid scintillation counter (PerkinElmer).

[3] = stimulating the production of cyclic AMP, read-out: cAMP EC50
[4] = stimulating the production of cyclic adenosine monophosphate, read-out: cAMP EC50 values

human adenosine receptor A2A, sequence (P29274 whole entry): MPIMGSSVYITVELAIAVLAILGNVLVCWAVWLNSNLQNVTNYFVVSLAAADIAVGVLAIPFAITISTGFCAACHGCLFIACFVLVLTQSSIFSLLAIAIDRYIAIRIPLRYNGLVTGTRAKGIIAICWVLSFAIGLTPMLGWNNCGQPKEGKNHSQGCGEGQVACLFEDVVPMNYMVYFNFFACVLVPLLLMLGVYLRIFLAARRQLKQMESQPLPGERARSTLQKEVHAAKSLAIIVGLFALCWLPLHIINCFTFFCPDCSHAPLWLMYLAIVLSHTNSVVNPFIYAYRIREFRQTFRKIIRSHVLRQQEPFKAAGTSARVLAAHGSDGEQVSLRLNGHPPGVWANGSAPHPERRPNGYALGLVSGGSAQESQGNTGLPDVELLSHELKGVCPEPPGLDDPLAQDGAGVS
T1 sequence (P29274 whole entry): as above

For `CC(=O)Nc1ccc(-c2nnc3c4ncn([C@@H]5O[C@H](CO)[C@@H](O)[C@H]5O)c4ncn23)cc1` [Compound 1, N-{4-{7-[(2R,3R,4S,5R)-3,4-dihydroxy-5-(hydroxymethyl)tetrahydrofuran-2-yl]-7H-[1,2,4]triazolo[3,4-i]purin-3-yl}phenyl}acetamide], the “agonistic activity at hA2AAR (cAMP production)” value (“agonistic activity at hA2AAR” for short) [1] was “no agonistic activity”, the EC50 [1, 3] was greater than 10 µM and the EC50 [1, 4] was greater than 10 µM. It also gave an IC50 [2] of 6.4 nM, a Ki [2] of 3 nM and a melting point of 132 °C.
For `OC[C@H]1O[C@@H](n2cnc3c2ncn2c(C4CCCC4)nnc32)[C@H](O)[C@@H]1O` [Compound 2, (2R,3R,4S,5R)-2-{3-cyclopentyl-7H-[1,2,4]triazolo[3,4-i]purin-7-yl}-5-(hydroxymethyl)tetrahydrofuran-3,4-diol], the “agonistic activity at hA2AAR” value [1] was “no agonistic activity”, the EC50 [1, 3] was greater than 10 µM and the EC50 [1, 4] was greater than 10 µM. For the same compound, the IC50 [2] was 3.9 nM, the Ki [2] was 1.8 nM and the melting point was 84 °C.
Compound `OC[C@H]1O[C@@H](n2cnc3c2ncn2c(-c4ccc(OCc5ccccc5)c(OCc5ccccc5)c4)nnc32)[C@H](O)[C@@H]1O` [Compound 3, (2R,3R,4S,5R)-2-{3-[3,4-di(benzyloxy)phenyl]-7H-[1,2,4]triazolo[3,4-i]purin-7-yl}-5-(hydroxymethyl)tetrahydrofuran-3,4-diol] has an IC50 [2] greater than 10000 nM, a Ki [2] greater than 10000 nM and a melting point of 116 °C.
With `OC[C@H]1O[C@@H](n2cnc3c2ncn2c(-c4ccc(OCc5ccc(F)cc5)cc4)nnc32)[C@H](O)[C@@H]1O` [Compound 4, (2R,3R,4S,5R)-2-{3-{4-[(4-fluorobenzyl)oxy]phenyl}-7H-[1,2,4]triazolo[3,4-i]purin-7-yl}-5-(hydroxymethyl)tetrahydrofuran-3,4-diol] the “agonistic activity at hA2AAR” value [1] was “no agonistic activity”, the EC50 [1, 3] was greater than 10 µM and the EC50 [1, 4] was greater than 10 µM. The IC50 [2] was 3.9 nM, the Ki [2] was 1.8 nM and the melting point was 112 °C.
In the case of `OC[C@H]1O[C@@H](n2cnc3c2ncn2c(-c4cccc(OCc5ccccc5)c4)nnc32)[C@H](O)[C@@H]1O` [Compound 5, (2R,3R,4S,5R)-2-{3-[3-(benzyloxy)phenyl]-7H-[1,2,4]triazolo[3,4-i]purin-7-yl}-5-(hydroxymethyl)tetrahydrofuran-3,4-diol], the “agonistic activity at hA2AAR” value [1] is reported as “no agonistic activity”, the EC50 [1, 3] is reported as greater than 10 µM and the EC50 [1, 4] is reported as greater than 10 µM. The IC50 [2] was 6.2 nM, the Ki [2] was 2.9 nM and the melting point was 76 °C.
Compound `OC[C@H]1O[C@@H](n2cnc3c2ncn2c(-c4ccc(C(F)(F)F)cc4C(F)(F)F)nnc32)[C@H](O)[C@@H]1O` [Compound 6, (2R,3R,4S,5R)-2-{3-[2,4-di(trifluoromethyl)phenyl]-7H-[1,2,4]triazolo[3,4-i]purin-7-yl}-5-(hydroxymethyl)tetrahydrofuran-3,4-diol] has an IC50 [2] greater than 10000 nM and a Ki [2] greater than 10000 nM.
`OC[C@H]1O[C@@H](n2cnc3c2ncn2c(-c4ccc(-c5ccccn5)cc4)nnc32)[C@@H](O)[C@H]1O` [Compound 7, (2R,3S,4R,5R)-2-{3-[4-(pyridin-2-yl)phenyl]-7H-[1,2,4]triazolo[3,4-i]purin-7-yl}-5-(hydroxymethyl)tetrahydrofuran-3,4-diol] gave an IC50 [2] greater than 10000 nM, a Ki [2] greater than 10000 nM and a melting point of 172 °C.
For `OC[C@H]1O[C@@H](n2cnc3c2ncn2c(-c4ccc(-c5ccccc5)cc4)nnc32)[C@H](O)[C@@H]1O` [Compound 8, (2R,3R,4S,5R)-2-{3-{[1,1′-biphenyl]-4-yl}-7H-[1,2,4]triazolo[3,4-i]purin-7-yl}-5-(hydroxymethyl)tetrahydrofuran-3,4-diol], the IC50 [2] was 7510 nM, the Ki [2] was 3510 nM and the melting point was 280 °C.
For `CCCOc1ccc(-c2nnc3c4ncn([C@@H]5O[C@H](CO)[C@H](O)[C@@H]5O)c4ncn23)cc1` [Compound 9, (2R,3S,4R,5R)-2-{3-(4-propoxyphenyl)-7H-[1,2,4]triazolo[3,4-i]purin-7-yl}-5-(hydroxymethyl)tetrahydrofuran-3,4-diol], the “agonistic activity at hA2AAR” value [1] was “no agonistic activity”, the EC50 [1, 3] was greater than 10 µM and the EC50 [1, 4] was greater than 10 µM. The IC50 [2] was 4.3 nM, the Ki [2] was 2 nM and the melting point was 118 °C.
In the case of `OC[C@H]1O[C@@H](n2cnc3c2ncn2c(-c4ccc(C(F)(F)F)cc4)nnc32)[C@@H](O)[C@H]1O` [Compound 10, (2R,3S,4R,5R)-2-{3-[4-(trifluoromethyl)phenyl]-7H-[1,2,4]triazolo[3,4-i]purin-7-yl}-5-(hydroxymethyl)tetrahydrofuran-3,4-diol], the IC50 [2] is reported as greater than 10000 nM, the Ki [2] is reported as greater than 10000 nM and the melting point is reported as 124 °C.
Compound `OC[C@H]1O[C@@H](n2cnc3c2ncn2c(-c4ccc(Br)cn4)nnc32)[C@H](O)[C@@H]1O` [Compound 11, (2R,3R,4S,5R)-2-{3-(5-bromopyridin-2-yl)-7H-[1,2,4]triazolo[3,4-i]purin-7-yl}-5-(hydroxymethyl)tetrahydrofuran-3,4-diol] has an IC50 [2] greater than 10000 nM, a Ki [2] greater than 10000 nM and a melting point of 222 °C.
With `OC[C@H]1O[C@@H](n2cnc3c2ncn2c(-c4cncs4)nnc32)[C@@H](O)[C@H]1O` [Compound 12, (2R,3S,4R,5R)-2-{3-(thiazol-5-yl)-7H-[1,2,4]triazolo[3,4-i]purin-7-yl}-5-(hydroxymethyl)tetrahydrofuran-3,4-diol] the “agonistic activity at hA2AAR” value [1] was “no agonistic activity”, the EC50 [1, 3] was greater than 10 µM and the EC50 [1, 4] was greater than 10 µM. The IC50 [2] was 3.9 nM, the Ki [2] was 1.8 nM and the melting point was 216 °C.
In the case of `OC[C@H]1O[C@@H](n2cnc3c2ncn2c(C4CCCCC4)nnc32)[C@H](O)[C@@H]1O` [Compound 13, (2R,3R,4S,5R)-2-{3-cyclohexyl-7H-[1,2,4]triazolo[3,4-i]purin-7-yl}-5-(hydroxymethyl)tetrahydrofuran-3,4-diol], the IC50 [2] is reported as greater than 10000 nM, the Ki [2] is reported as greater than 10000 nM and the melting point is reported as 130 °C.
